Data taken from ChEMBL document CHEMBL3286333, “Concise synthesis of C-1-cyano-iminosugars via a new Staudinger/aza Wittig/Strecker multicomponent reaction strategy” (Bioorg Med Chem Lett, 2014).

Experiments:
[1] = target: T1, Lysosomal acid glucosylceramidase (Homo sapiens, UniProt P04062); assay: Inhibition of human lysosomal beta-glucocerebrosidase
T1 sequence (P04062 whole entry): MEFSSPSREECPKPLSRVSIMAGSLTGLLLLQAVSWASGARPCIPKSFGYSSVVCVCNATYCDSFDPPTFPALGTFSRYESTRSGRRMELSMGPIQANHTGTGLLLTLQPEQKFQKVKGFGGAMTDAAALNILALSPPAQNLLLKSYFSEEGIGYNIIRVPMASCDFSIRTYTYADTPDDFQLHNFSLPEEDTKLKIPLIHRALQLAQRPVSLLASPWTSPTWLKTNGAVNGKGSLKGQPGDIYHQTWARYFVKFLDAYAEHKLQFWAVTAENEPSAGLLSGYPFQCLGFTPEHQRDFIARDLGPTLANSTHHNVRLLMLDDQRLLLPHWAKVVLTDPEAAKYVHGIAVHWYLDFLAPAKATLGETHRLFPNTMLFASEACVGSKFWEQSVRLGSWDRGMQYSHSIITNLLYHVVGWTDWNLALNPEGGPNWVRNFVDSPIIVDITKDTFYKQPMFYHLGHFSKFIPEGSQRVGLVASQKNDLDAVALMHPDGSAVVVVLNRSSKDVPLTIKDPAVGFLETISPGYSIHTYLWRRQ

[2] = target: T1, Lysosomal acid glucosylceramidase; assay: Inhibition of human lysosomal beta-glucocerebrosidase using 2,4-dinitrophenyl-beta-D-glucopyranoside as substrate by UV spectrophotometric analysis

| Ki [1] | Ki [2] | SMILES |
| --- | --- | --- |
| 0.001 µM |  | O[C@@H]1[C@@H](O)[C@@H](CCCCCOCC23CC4CC(CC(C4)C2)C3)NC[C@H]1O |
|  | 34 µM | N#C[C@H]1NC[C@@H](O)[C@H](O)[C@H]1O |
|  | 716 µM | N#C[C@H]1N[C@H](CO)[C@@H](O)[C@H](O)[C@H]1O |
|  | 0.0075 µM | CN(C)c1cccc2c(S(=O)(=O)NC[C@H]3NC[C@@H](O)[C@H](O)[C@H]3O)cccc12 |
